≈ marks a conversion by molar mass, not a printed value.

The nature of data set [1]: Oral bioavailability in CD1 mouse at 10 mg/kg. Particulars: in vivo. It is filed as ADME, organism-based.
A short description of data set [2]: Solubility of the compound in phosphate buffer at pH 6.5. It is filed as physicochemical.

Usually bioavailability stands for dose-corrected exposure relative to a reference, in per cent. Low readings indicate little systemic uptake, high ones much systemic uptake. The compound `CC1(C)C[C@H](O)C[C@](C)(CNc2cc(Cl)cc(S(N)(=O)=O)c2)C1` yielded a bioavailability in data set [1] of 55%.

`CC1(C)C[C@H](O)C[C@](C)(CNc2ccc(Cl)c(S(N)(=O)=O)c2)C1` registered a bioavailability in data set [1] of 70%.

As usually defined, the solubility is how much of the substance goes into solution per volume. `CC1(C)C[C@H](O)C[C@](C)(CNc2cccc(S(N)(=O)=O)c2)C1` (relative stereo) displayed a bioavailability in data set [1] of 75%. In data set [2], this compound had a solubility of 141 µg/mL (≈ 432 µM).

Source of the values: ChEMBL document CHEMBL2010786, “Design and synthesis of benzenesulfonamide derivatives as potent anti-influenza hemagglutinin inhibitors” (ACS Med Chem Lett, 2011).
